Source: BigSolDB 2.1

C=CC(=O)N1CCC[C@@H](n2nc(-c3ccc(Oc4ccccc4)cc3)c3c(N)ncnc32)C1
solubility (mole fraction)
Settings	298.15 K	303.15 K	308.15 K	313.15 K	323.15 K
in ethanol	0.00312	0.00356	0.00396	0.00447	0.00551
in water	1.42e-07	2.22e-07	3.12e-07	4.29e-07	7.77e-07
